Measurements reported in PMC7896091, “Synthesis of novel phytol-derived γ-butyrolactones and evaluation of their biological activity” (Scientific Reports, 2021).

Legend:
Myzus persicae = experiment: EPG monitoring of aphid probing and feeding (no-choice test); type: in vivo; settings: 8-h EPG; for Mean duration of probing (C + G + E) / Number of probes / Total duration of pathway (C) / Total duration of phloem phase (E) / Total duration of probing (C + G + E): 0.1% solution, n = 12; for Mean duration of probing (C + G + E) / Number of probes / Total duration of pathway (C) / Total duration of phloem phase (E) / Total duration of probing (C + G + E) / Number of probes before first phloem phase / Time from first probe to first phloem phase / Duration of first phloem phase / Total duration of phloem salivation E1 / Total duration of phloem sap ingestion E2 / Number of probes < 3 min: mean ± SE; for Number of probes before first phloem phase / Time from first probe to first phloem phase: activities in non-phloem tissues; for Number of probes before first phloem phase / Time from first probe to first phloem phase / Duration of first phloem phase / Total duration of phloem salivation E1 / Total duration of phloem sap ingestion E2 / Number of probes < 3 min: n = 10-12; for Duration of first phloem phase / Total duration of phloem salivation E1 / Total duration of phloem sap ingestion E2: activities in sieve elements; for Number of probes < 3 min: before first phloem phase; for Proportion of salivation in phloem phase: (duration of E1 / duration of E1 + E2)*100; for Proportion of phloem phase in total probing: index = duration of phloem phase E / duration of probing C + G + E
Description: The peach potato aphids Myzus persicae (Sulzer) and the Chinese cabbage Brassica rapa subsp. pekinensis (Lour.) Hanelt were reared in laboratory at 20 °C, 65% r.h., and L16:8D photoperiod. One to seven days old apterous females of M. persicae and 3-week old plants with 4–5 fully developed leaves were used for experiments. M. persicae were obtained from the laboratory culture maintained at the Department of Botany and Ecology for many generations since 2000. All experiments were carried out under the same conditions of temperature, relative humidity, and photoperiod. The bioassays were started at 10–11.a.m. Each compound was dissolved in 70% ethanol to obtain the recommended 0.1% solution[40]. All compounds were applied on the adaxial and abaxial leaf surfaces by immersing a leaf in the ethanolic solution of a given compound for 30 s.[20]. Control leaves of similar size were immersed in 70% ethanol that was used as a solvent for the studied compounds. Experiments were performed 1 h after the compounds application to allow the evaporation of the solvent. Every plant and aphid were used only once.
Aphid probing and the phloem sap uptake by M. persicae was monitored using the technique of electronic registration of aphid probing in plant tissues, known as EPG (= Electrical Penetration Graph), that is frequently employed in insect–plant relationship studies considering insects with sucking-piercing mouthparts[42]–[44]. In this experimental set-up, aphid and plant are connected to electrodes and thus made parts of an electric circuit, which is completed when the aphid inserts its stylets into the plant. Weak voltage is supplied in the circuit, and all changing electric properties are recorded as EPG waveforms that can be correlated with aphid activities and stylet position in plant tissues[45],[46]. The parameters describing aphid behaviour during probing and feeding, such as total time of probing, proportion of phloem patterns E1 and E2, number of probes, etc., are good indicators of plant suitability or interference of probing by chemical or physical factors in individual plant tissues[44]–[46]. In the present study, aphids were attached to a golden wire electrode with conductive silver paint (epgsystems. eu) and starved for 1 h prior to the experiment. Probing behaviour of 12 apterous females/studied compound and control was monitored for 8 h continuously with Giga-4 and Giga-8 DC EPG with 1 GΩ of input resistance recording equipment (EPG Systems, Wageningen, The Netherlands). Each aphid was given access to a freshly prepared plant and each aphid/plant combination was used only once. Various behavioural phases were labelled manually using the Stylet + software (www.epgsystems.eu). The following aphid behaviours were distinguished: no penetration (waveform 'np' – aphid stylets outside the plant), pathway phase—penetration of non-phloem tissues (waveforms 'ABC'), phloem phase (salivation into sieve elements, waveform ‘E1’ and ingestion of phloem sap, waveform ‘E2’), and xylem phase (ingestion of xylem sap, waveform 'G'). Waveform ‘G’ occurred rarely irrespective of the treatment. Therefore, in all calculations the xylem phase was added to the pathway phase and termed as probing in non-phloem tissues. The E1/E2 transition patterns were included in E2. Waveform patterns that were not terminated before the end of the experimental period (8 h) were not excluded from the calculations. The parameters derived from EPG recordings were analyzed according to their frequency and duration in configuration related to activities in peripheral and vascular tissues.
All statistical calculations related to data of the no-choice test were performed using StatSoft, Inc. (2014) STATISTICA (data analysis software system), version 12, www.statsoft.com. […]

MV4-11 cells = experiment: Antiproliferative activity, MTT assay; type: cell-based, human; settings: for IC50: Homo sapiens, MV4-11, 72 h exposure, MTT, mean ± SD, n.a = no activity in concentration of 5, 25, 125, 625 μM; for Selectivity index SI, MV4-11: SI = IC50 BALB/3T3 / IC50 MV4-11
Description: Human biphenotypic B myelomonocytic leukemia MV4-11, human colon cancer LoVo cell line and normal mouse fibroblast BALB/3T3 cells were obtained from American Type Culture Collection (Rockville, Maryland, USA), human lung carcinoma A549 cells were obtained from European Collection of Authenticated Cell Cultures (UK). All the cell lines are being maintained at the Hirszfeld Institute of Immunology and Experimental Therapy, PAS, Wroclaw, Poland and were cultured according the procedure described before.
Cell lines were cultured according to the protocol described before. MV4-11 cells were cultured in RPMI 1640 medium (Gibco, UK) with 1.0 mM sodium pyruvate, and 10% fetal bovine serum (FBS) (all from Sigma-Aldrich, Germany). A549, LoVo and LoVo/DX cells were cultured in RPMI 1640 + Opti-MEM (1:1) (both from Gibco, UK) supplemented with 5% fetal bovine serum, 1.0 mM sodium pyruvate (LoVo and LoVo/DX cells) (all from Sigma Aldrich Germany) and 0.1 μg/mL doxorubicin chloride (Accord) (only LoVo/DX cells). BALB/3T3 cells in Dulbecco medium (IIET, Poland) supplemented with 10% fetal bovine serum (Sigma-Aldrich, Germany). All culture media were supplemented with 2 mM L-glutamine (Sigma-Aldrich, Germany), 100 units/mL penicillin, and 100 µg/mL streptomycin (both from Polfa Tarchomin S.A., Poland). All cell lines were grown at 37 °C with 5% CO2 humidified atmosphere.
The solutions of the compounds (50 mM) were prepared by dissolving the substances in DMSO (Sigma Aldrich, Germany). Then the tested compounds were diluted in culture medium to reach the final concentrations of 625, 125, 25 and 5 μM. Before adding of the tested compounds (24 h prior), the cells were plated in 96-well plates (Sarstedt, Germany) at a density of 1 × 10^4 or 0.5 × 10^4 (A549) cells per well. The assay was performed after 72 h of exposure to 625, 125, 25 and 5 μM of the tested agents. The in vitro cytotoxic effect of all agents was examined using the MTT (MV4-11) or SRB assay, described previously. The results were calculated as an IC50 (inhibitory concentration 50%) the concentration of tested agent, which is cytotoxic for 50% of the cancer cells. Each compound in each concentration was tested in triplicate in a single experiment, which was repeated 3–5 times.

LoVo/DX cells = experiment: Antiproliferative activity, SRB assay, doxorubicin resistant subline; type: cell-based, human; settings: for IC50: Homo sapiens, LoVo/DX, 72 h exposure, SRB, mean ± SD, n.a = no activity in concentration of 5, 25, 125, 625 μM; for Selectivity index SI, LoVo/DX: SI = IC50 BALB/3T3 / IC50 LoVo/DX
Description: Cell lines were cultured according to the protocol described before. […] All culture media were supplemented with 2 mM L-glutamine (Sigma-Aldrich, Germany), 100 units/mL penicillin, and 100 µg/mL streptomycin (both from Polfa Tarchomin S.A., Poland). All cell lines were grown at 37 °C with 5% CO2 humidified atmosphere. The solutions of the compounds (50 mM) were prepared by dissolving the substances in DMSO (Sigma Aldrich, Germany). […] The in vitro cytotoxic effect of all agents was examined using the MTT (MV4-11) or SRB assay, described previously. […] Each compound in each concentration was tested in triplicate in a single experiment, which was repeated 3–5 times.

Row | Structure (SMILES) | Mean duration of probing (C + G + E) (Myzus persicae) | Number of probes (Myzus persicae) | Total duration of pathway (C) (Myzus persicae) | Total duration of phloem phase (E) (Myzus persicae) | Total duration of probing (C + G + E) (Myzus persicae) | Number of probes before first phloem phase (Myzus persicae) | Time from first probe to first phloem phase (Myzus persicae) | Duration of first phloem phase (Myzus persicae) | Total duration of phloem salivation E1 (Myzus persicae) | Total duration of phloem sap ingestion E2 (Myzus persicae) | Number of probes < 3 min (Myzus persicae) | Proportion of salivation in phloem phase (Myzus persicae) | Proportion of phloem phase in total probing (Myzus persicae) | IC50 (MV4-11 cells) | IC50 (LoVo/DX cells) | Selectivity index SI, MV4-11 (MV4-11 cells) | Selectivity index SI, LoVo/DX (LoVo/DX cells)
1 | CC(C)CCCC(C)CCCC(C)CCC[C@]1(C)CC(=O)O[C@H]1CCl (stereo in doubt) [compound 7, cis-5-chloromethyl-4-methyl-4-(4′,8′,12′-trimethyltridecyl)dihydrofuran-2-one] | 1.0 ± 0.4 h | 18.7 ± 4.6 | 2.5 ± 0.5 h | 4.4 ± 0.8 h | 7.1 ± 0.5 h | 15.6 ± 4.7 | 3.3 ± 0.8 h | 3.6 ± 0.8 h | 1.2 ± 0.6 min | 4.4 ± 0.8 h | 9.6 ± 3.6 | 0.4% | 56.9% | 110 ± 41.6 µM | 237 ± 52.9 µM | – | –
2 | C=CC(C)(CCCC(C)CCCC(C)CCCC(C)C)CC(=O)O (stereo not drawn) [compound 3, 3,7,11,15-tetramethyl-3-vinylhexadecanoic acid] | 1.6 ± 0.7 h | 25.3 ± 6.7 | 2.9 ± 0.5 h | 4.1 ± 0.8 h | 7.2 ± 0.2 h | 15.7 ± 5.9 | 2.0 ± 0.5 h | 3.3 ± 0.9 h | 9.0 ± 6.0 min | 3.9 ± 0.8 h | 10.9 ± 4.4 | 8.4% | 52.6% | – | 55 ± 1.5 µM | 3.69 | 2.64
3 | CC(C)CCCC(C)CCCC(C)CCC[C@]1(C)CC(=O)O[C@@H]1CCl (stereo in doubt) [compound 6, trans-5-Chloromethyl-4-methyl-4-(4′,8′,12′-trimethyltridecyl)dihydrofuran-2-one] | 1.2 ± 0.7 h | 42.9 ± 10.4 | 3.0 ± 0.5 h | 3.5 ± 0.8 h | 6.6 ± 0.5 h | 24.9 ± 9.0 | 3.0 ± 0.8 h | 2.0 ± 0.8 h | 3.0 ± 1.2 min | 3.5 ± 0.8 h | 20.3 ± 7.9 | 9.7% | 46.7% | 48.3 ± 19.6 µM | 188 ± 32.7 µM | 5.65 | 1.46
